# Experimental data as given in ChEMBL document CHEMBL5649169 (ChemMedChem, 2018).
# How the values were obtained:
# [1] = molecular target: Amino acid transporter heavy chain SLC3A2 (Homo sapiens) (UniProt P08195)
# [2] = molecular target: Synaptogyrin-2 (Homo sapiens) (UniProt O43760)
# [3] = molecular target: Replication factor C subunit 3 (Homo sapiens) (UniProt P40938)
# [4] = molecular target: Nuclear pore complex protein Nup93 (Homo sapiens) (UniProt Q8N1F7)
# [5] = molecular target: Eukaryotic translation initiation factor 3 subunit H (Homo sapiens) (UniProt O15372)
# [6] = molecular target: Nucleolar complex protein 2 homolog (Homo sapiens) (UniProt Q9Y3T9)
# [7] = molecular target: Tyrosine-protein kinase Lyn (Homo sapiens) (UniProt P07948)
# [8] = species: Homo sapiens
# [9] = molecular target: Conserved oligomeric Golgi complex subunit 1 (Homo sapiens) (UniProt Q8WTW3)
# [10] = molecular target: Aldehyde dehydrogenase X, mitochondrial (Homo sapiens) (UniProt P30837)
# [11] = molecular target: Small ribosomal subunit protein eS12 (Homo sapiens) (UniProt P25398)
# [12] = molecular target: Tryptophan--tRNA ligase, cytoplasmic (Homo sapiens) (UniProt P23381)
# Chain of Tryptophan--tRNA ligase, cytoplasmic (Homo sapiens) (P23381 whole entry): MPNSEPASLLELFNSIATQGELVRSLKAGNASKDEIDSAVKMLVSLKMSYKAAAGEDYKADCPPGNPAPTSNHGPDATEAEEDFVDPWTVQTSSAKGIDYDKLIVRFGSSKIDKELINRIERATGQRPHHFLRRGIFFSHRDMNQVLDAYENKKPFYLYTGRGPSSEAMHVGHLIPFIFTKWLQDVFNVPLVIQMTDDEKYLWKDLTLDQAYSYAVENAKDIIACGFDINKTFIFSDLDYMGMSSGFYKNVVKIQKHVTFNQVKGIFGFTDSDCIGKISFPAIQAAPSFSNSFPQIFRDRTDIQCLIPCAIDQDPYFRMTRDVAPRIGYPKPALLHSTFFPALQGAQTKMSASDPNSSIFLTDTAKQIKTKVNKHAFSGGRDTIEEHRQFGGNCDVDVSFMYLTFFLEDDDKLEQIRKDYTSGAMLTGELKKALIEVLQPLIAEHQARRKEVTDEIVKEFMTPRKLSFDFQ
# [13] = molecular target: cAMP-dependent protein kinase catalytic subunit alpha (Homo sapiens) (UniProt P17612)
# [14] = molecular target: Phosphatidylinositol transfer protein beta isoform (Homo sapiens) (UniProt P48739)
# [15] = molecular target: Puromycin-sensitive aminopeptidase (Homo sapiens) (UniProt P55786)
# [16] = molecular target: Tyrosine-protein kinase Fer (Homo sapiens) (UniProt P16591)
# Chain of Tyrosine-protein kinase Fer (Homo sapiens) (P16591 whole entry, looked up): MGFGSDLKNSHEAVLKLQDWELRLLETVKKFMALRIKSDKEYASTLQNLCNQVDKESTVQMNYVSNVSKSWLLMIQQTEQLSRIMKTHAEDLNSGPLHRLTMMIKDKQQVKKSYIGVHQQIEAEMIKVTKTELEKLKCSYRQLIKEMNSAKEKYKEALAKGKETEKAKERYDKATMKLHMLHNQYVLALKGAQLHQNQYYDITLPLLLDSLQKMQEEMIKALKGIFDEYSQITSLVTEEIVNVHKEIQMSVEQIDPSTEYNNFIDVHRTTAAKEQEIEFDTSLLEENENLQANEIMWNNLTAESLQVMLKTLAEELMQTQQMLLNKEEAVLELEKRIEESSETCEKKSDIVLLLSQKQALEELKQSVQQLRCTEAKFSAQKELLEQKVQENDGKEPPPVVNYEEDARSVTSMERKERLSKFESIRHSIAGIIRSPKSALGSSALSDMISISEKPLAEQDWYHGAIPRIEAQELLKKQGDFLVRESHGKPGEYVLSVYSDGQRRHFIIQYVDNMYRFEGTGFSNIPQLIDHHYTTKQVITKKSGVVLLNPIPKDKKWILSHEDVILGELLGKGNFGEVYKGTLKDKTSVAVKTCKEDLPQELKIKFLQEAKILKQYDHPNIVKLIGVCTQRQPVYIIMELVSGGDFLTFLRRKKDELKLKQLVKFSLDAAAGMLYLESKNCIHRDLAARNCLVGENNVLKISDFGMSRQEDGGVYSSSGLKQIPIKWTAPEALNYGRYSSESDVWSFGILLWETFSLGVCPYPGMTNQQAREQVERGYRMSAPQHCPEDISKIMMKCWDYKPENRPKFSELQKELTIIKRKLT
# [17] = molecular target: Protein FAM83B (Homo sapiens) (UniProt Q5T0W9)
# [18] = molecular target: Proteasome subunit alpha type-1 (Homo sapiens) (UniProt P25786)
# [19] = molecular target: 26S proteasome non-ATPase regulatory subunit 3 (Homo sapiens) (UniProt O43242)
# [20] = molecular target: Serine/threonine-protein kinase PLK1 (Homo sapiens) (UniProt P53350)
# Chain of Serine/threonine-protein kinase PLK1 (Homo sapiens) (P53350 whole entry): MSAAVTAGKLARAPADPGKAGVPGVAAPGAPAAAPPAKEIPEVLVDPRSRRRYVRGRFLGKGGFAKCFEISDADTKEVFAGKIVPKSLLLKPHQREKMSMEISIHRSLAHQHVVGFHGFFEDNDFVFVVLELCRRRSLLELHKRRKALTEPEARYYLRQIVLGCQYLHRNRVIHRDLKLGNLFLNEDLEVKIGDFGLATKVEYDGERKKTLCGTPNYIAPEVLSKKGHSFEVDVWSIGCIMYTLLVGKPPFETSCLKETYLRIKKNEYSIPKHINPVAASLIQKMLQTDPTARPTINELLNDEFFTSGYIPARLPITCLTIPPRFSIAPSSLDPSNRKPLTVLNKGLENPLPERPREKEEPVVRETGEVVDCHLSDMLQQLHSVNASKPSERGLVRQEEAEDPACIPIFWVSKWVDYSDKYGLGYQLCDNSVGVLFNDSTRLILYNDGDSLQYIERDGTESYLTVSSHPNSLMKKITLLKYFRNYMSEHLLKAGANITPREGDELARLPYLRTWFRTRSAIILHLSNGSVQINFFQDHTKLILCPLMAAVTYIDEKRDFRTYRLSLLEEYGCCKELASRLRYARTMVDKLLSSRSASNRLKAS
# [21] = molecular target: Tubulin beta-6 chain (Homo sapiens) (UniProt Q9BUF5)
# Chain of Tubulin beta-6 chain (Homo sapiens) (Q9BUF5 whole entry): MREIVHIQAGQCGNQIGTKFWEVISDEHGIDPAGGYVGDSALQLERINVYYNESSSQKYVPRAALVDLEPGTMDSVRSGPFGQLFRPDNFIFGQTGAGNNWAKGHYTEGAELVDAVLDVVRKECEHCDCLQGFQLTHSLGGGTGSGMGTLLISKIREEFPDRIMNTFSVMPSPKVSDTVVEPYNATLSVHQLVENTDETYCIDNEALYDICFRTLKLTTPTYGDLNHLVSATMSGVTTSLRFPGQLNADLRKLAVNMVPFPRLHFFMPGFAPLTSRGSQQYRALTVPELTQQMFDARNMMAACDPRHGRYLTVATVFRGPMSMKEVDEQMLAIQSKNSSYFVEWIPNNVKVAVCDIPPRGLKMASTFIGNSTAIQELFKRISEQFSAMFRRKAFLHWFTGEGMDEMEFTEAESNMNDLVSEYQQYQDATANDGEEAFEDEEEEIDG
# [22] = molecular target: Small ribosomal subunit protein uS5 (Homo sapiens) (UniProt P15880)
# [23] = molecular target: TRAF family member-associated NF-kappa-B activator (Homo sapiens) (UniProt Q92844)
# Chain of TRAF family member-associated NF-kappa-B activator (Homo sapiens) (Q92844 whole entry): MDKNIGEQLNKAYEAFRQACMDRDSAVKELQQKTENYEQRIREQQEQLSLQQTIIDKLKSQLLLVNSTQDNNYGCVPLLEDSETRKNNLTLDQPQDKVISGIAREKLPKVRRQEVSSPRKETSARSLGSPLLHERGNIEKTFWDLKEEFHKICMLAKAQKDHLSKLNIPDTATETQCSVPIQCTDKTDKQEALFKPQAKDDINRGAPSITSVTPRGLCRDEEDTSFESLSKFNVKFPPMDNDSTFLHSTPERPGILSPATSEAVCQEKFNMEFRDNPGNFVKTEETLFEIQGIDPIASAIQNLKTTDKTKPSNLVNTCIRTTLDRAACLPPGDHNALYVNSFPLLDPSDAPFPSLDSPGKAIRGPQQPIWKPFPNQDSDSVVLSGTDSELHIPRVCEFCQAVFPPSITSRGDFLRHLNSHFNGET
# [24] = molecular target: ATP synthase F(1) complex subunit delta, mitochondrial (Homo sapiens) (UniProt P30049)
# [25] = molecular target: Tyrosine-protein kinase SYK (Homo sapiens) (UniProt P43405)
# [26] = molecular target: Dynein light chain 1, cytoplasmic (Homo sapiens) (UniProt P63167)
# [27] = molecular target: Mitogen-activated protein kinase 3 (Homo sapiens) (UniProt P27361)
# Chain of Mitogen-activated protein kinase 3 (Homo sapiens) (P27361 whole entry): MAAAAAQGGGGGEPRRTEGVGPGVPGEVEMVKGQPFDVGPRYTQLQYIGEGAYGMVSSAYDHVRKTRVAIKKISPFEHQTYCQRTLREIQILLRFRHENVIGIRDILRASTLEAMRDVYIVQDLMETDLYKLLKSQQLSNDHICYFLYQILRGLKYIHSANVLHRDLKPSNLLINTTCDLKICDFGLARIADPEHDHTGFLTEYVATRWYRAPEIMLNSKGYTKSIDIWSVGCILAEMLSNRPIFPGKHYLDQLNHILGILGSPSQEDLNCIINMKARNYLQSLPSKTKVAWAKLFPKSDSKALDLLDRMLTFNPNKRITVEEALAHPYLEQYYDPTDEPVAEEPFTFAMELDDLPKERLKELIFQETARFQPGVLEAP
# [28] = molecular target: Signal recognition particle 9 kDa protein (Homo sapiens) (UniProt P49458)
# [29] = molecular target: Alanine--tRNA ligase, cytoplasmic (Homo sapiens) (UniProt P49588)
# [30] = molecular target: Atypical kinase COQ8A, mitochondrial (Homo sapiens) (UniProt Q8NI60)
# [31] = molecular target: Dual specificity protein kinase CLK2 (Homo sapiens) (UniProt P49760)
# [32] = molecular target: cAMP-dependent protein kinase catalytic subunit beta (Homo sapiens) (UniProt P22694)
# [33] = molecular target: Casein kinase II subunit alpha' (Homo sapiens) (UniProt P19784)
# Chain of Casein kinase II subunit alpha' (Homo sapiens) (P19784 whole entry, looked up): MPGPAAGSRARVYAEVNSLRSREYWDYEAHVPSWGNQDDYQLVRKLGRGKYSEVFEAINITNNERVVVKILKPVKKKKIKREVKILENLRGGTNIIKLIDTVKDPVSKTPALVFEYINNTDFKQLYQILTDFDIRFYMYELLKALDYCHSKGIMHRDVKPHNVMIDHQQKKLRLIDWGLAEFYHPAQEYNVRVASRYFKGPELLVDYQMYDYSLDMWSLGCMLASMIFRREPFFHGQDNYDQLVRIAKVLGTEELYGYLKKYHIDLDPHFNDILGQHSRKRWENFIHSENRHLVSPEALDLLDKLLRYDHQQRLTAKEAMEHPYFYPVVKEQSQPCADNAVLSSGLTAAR
# [34] = molecular target: Actin-related protein 2/3 complex subunit 5 (Homo sapiens) (UniProt O15511)
# [35] = molecular target: ATP synthase peripheral stalk subunit d, mitochondrial (Homo sapiens) (UniProt O75947)
# [36] = molecular target: Nucleophosmin (Homo sapiens) (UniProt P06748)
# [37] = molecular target: Proteasome subunit alpha type-4 (Homo sapiens) (UniProt P25789)
# [38] = molecular target: Galectin-3-binding protein (Homo sapiens) (UniProt Q08380)
# [39] = molecular target: Oligosaccharyltransferase complex subunit OSTC (Homo sapiens) (UniProt Q9NRP0)
# [40] = molecular target: NADH dehydrogenase [ubiquinone] 1 alpha subcomplex assembly factor 4 (Homo sapiens) (UniProt Q9P032)
# [41] = molecular target: Small ribosomal subunit protein uS3 (Homo sapiens) (UniProt P23396)
# [42] = species: Homo sapiens; remark: listed apart in the source
# [43] = molecular target: Heterogeneous nuclear ribonucleoproteins A2/B1 (Homo sapiens) (UniProt P22626)
# Chain of Heterogeneous nuclear ribonucleoproteins A2/B1 (Homo sapiens) (P22626 whole entry): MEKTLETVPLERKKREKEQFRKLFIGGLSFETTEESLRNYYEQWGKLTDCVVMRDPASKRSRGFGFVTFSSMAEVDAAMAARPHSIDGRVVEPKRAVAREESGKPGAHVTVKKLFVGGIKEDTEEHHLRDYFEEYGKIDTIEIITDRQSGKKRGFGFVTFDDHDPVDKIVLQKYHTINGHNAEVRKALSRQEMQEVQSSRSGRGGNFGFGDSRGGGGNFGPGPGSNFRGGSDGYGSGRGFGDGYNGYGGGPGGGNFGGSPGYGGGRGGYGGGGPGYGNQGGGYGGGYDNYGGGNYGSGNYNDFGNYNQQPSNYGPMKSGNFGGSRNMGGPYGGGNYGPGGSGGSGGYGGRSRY
# [44] = molecular target: Large ribosomal subunit protein eL27 (Homo sapiens) (UniProt P61353)
# [45] = molecular target: Metal cation symporter ZIP14 (Homo sapiens) (UniProt Q15043)
# [46] = molecular target: Peptidyl-prolyl cis-trans isomerase H (Homo sapiens) (UniProt O43447)
# [47] = molecular target: Cullin-3 (Homo sapiens) (UniProt Q13618)
# Note: assay method not described here.
# Chain of Amino acid transporter heavy chain SLC3A2 (Homo sapiens) (P08195 102-630): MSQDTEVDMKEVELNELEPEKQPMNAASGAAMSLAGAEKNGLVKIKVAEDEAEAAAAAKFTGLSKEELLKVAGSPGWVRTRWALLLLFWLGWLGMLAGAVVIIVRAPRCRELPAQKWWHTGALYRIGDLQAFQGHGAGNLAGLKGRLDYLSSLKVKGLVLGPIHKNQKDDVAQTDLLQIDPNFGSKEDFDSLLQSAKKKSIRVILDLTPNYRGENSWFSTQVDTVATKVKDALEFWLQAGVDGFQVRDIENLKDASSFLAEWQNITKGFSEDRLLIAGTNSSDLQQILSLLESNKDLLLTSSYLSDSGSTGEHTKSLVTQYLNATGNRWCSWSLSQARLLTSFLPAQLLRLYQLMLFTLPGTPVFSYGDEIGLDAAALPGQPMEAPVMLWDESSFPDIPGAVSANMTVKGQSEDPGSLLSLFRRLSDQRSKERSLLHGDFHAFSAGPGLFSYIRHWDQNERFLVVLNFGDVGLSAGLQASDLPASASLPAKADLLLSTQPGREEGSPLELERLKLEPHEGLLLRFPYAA
# Chain of Synaptogyrin-2 (Homo sapiens) (O43760 whole entry): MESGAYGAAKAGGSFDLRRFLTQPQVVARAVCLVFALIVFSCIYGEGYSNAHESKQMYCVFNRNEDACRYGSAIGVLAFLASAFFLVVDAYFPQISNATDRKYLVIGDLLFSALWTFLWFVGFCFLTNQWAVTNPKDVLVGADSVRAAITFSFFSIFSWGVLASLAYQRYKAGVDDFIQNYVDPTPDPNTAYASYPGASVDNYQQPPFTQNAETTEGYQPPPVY
# Chain of Replication factor C subunit 3 (Homo sapiens) (P40938 whole entry): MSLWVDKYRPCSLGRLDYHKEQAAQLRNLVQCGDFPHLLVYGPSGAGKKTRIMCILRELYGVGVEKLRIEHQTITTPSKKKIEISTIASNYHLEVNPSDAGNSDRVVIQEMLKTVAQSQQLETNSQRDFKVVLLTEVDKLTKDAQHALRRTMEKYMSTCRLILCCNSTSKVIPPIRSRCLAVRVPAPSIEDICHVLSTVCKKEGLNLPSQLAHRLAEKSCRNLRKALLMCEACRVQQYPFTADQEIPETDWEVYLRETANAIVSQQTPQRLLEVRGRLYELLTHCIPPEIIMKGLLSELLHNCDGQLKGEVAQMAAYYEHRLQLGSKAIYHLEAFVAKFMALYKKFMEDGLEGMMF
structure (smiles),measurement,setting,value
Cc1ccc(C(=O)Nc2cccc(C(F)(F)F)c2)cc1Nc1nc(-c2cccnc2)nc2c1cnn2C,ED50,[1],5.57 µM
same,ED50,[2],44.4 µM
same,ED50,[3],0.485 µM
same,ED50,[4],3.25 µM
same,ED50,[5],1.4 µM
same,ED50,[6],0.637 µM
same,ED50,[7],1.34 µM
same,ED50,[8],3.11 µM
same,ED50,[9],0.0039 µM
same,ED50,[10],0.00943 µM
same,ED50,[11],0.171 µM
same,ED50,[12],0.0163 µM
same,ED50,[13],12900 µM
same,ED50,[14],1.71 µM
same,ED50,[15],0.0863 µM
same,ED50,[16],0.0297 µM
same,ED50,[17],1380 µM
same,ED50,[18],10.4 µM
same,ED50,[19],6.22 µM
same,ED50,[20],1.22 µM
same,ED50,[21],2.53 µM
same,ED50,[22],0.0804 µM
same,ED50,[23],13.4 µM
same,ED50,[24],146 µM
same,ED50,[25],3.85 µM
same,ED50,[26],0.0155 µM
same,ED50,[27],0.0457 µM
same,ED50,[28],5.32 µM
same,ED50,[29],0.00373 µM
same,ED50,[30],0.39 µM
same,ED50,[31],117 µM
same,ED50,[32],3.65 µM
same,ED50,[33],3.31 µM
same,ED50,[34],3.49 µM
same,ED50,[35],0.0727 µM
same,ED50,[36],0.00826 µM
same,ED50,[37],0.151 µM
same,ED50,[38],9.93 µM
same,ED50,[39],15.6 µM
same,ED50,[40],0.0015 µM
same,ED50,[41],0.00386 µM
same,ED50,[42],3.01 µM
same,ED50,[43],0.0823 µM
same,ED50,[44],5.26 µM
same,ED50,[45],0.00337 µM
same,ED50,[46],2.05 µM
same,ED50,[47],0.0191 µM
Cc1ccc(C(=O)Nc2cccc(C(F)(F)F)c2)cc1Nc1nc(-c2cccnc2)nc2nn(C)cc12,ED50,[1],0.362 µM
same,ED50,[2],1.91 µM
same,ED50,[3],0.0505 µM
same,ED50,[4],1.55 µM
same,ED50,[5],0.179 µM
same,ED50,[6],627 µM
same,ED50,[7],60.5 µM
same,ED50,[8],0.00782 µM
same,ED50,[9],69.8 µM
same,ED50,[10],0.0072 µM
same,ED50,[11],0.254 µM
same,ED50,[12],29.9 µM
same,ED50,[13],0.0643 µM
same,ED50,[14],1.13 µM
same,ED50,[15],0.0907 µM
same,ED50,[16],0.0189 µM
same,ED50,[17],0.254 µM
same,ED50,[18],9.78 µM
same,ED50,[19],0.0197 µM
same,ED50,[20],98.4 µM
same,ED50,[21],4.67 µM
same,ED50,[22],1.83 µM
same,ED50,[23],0.0508 µM
same,ED50,[24],97.9 µM
same,ED50,[25],0.216 µM
same,ED50,[26],5.16 µM
same,ED50,[27],2500 µM
same,ED50,[28],2440 µM
same,ED50,[29],36.5 µM
same,ED50,[30],8.58 µM
same,ED50,[31],6.69 µM
same,ED50,[32],0.00679 µM
same,ED50,[33],110 µM
same,ED50,[34],2.93 µM
same,ED50,[35],0.0557 µM
same,ED50,[36],104 µM
same,ED50,[37],13 µM
same,ED50,[38],0.0814 µM
same,ED50,[39],1.15 µM
same,ED50,[40],1.82 µM
same,ED50,[41],0.0406 µM
same,ED50,[42],0.135 µM
same,ED50,[43],0.0115 µM
same,ED50,[44],0.048 µM
same,ED50,[45],3.03 µM
same,ED50,[46],0.0325 µM
same,ED50,[47],1.09 µM
